Patent US20180153830A1, “SELECTIVE INHIBITORS OF UNDIFFERENTIATED CELLS” (Yissum Research Development Company of the Hebrew …, priority 2012, published 2018)

Key:
embryonic stem cells = assay: Annexin V-FITC apoptosis detection (FACS); format: cell-based, human; conditions: for apoptosis of undifferentiated cells: 18 hours, 20 μM PluriSIn #1 or 100 nm A939572
Protocol: For quantification of apoptosis, an Annexin V-FITC Apoptosis Detection Kit (eBioscience) was used. […] Dissociated cells were suspended at a final concentration of 2-5×10^5 cells/ml, and treated according to the manufacturer's instructions. Analysis was performed using LSR II FACS with FCS Express software.
The finding of gene expression associated with apoptosis is consistent with previous reports that pluripotent cells are prone to apoptosis [Qin et al., Journal of Biological Chemistry 282:5842-5852 (2007); Momcilovic et al., PloS One 5:e13410 (2010)]. However, pluripotent cells have also been reported to be susceptible to other types of cell death, such as oncosis [Tan et al., Stem Cells 27:1792-1801 (2009)] and autophagy [Alexander et al., PNAS 108:15828-15833 (2011)]. An Annexin V-FITC detection assay and immunoblotting for caspase-3 (a hallmark executioner of apoptosis) were therefore used in order to confirm that the massive hPSC death induced by PluriSIn #1 is indeed apoptosis.

[1] = tested on: spliced isoform sXBP1 in human ES cells; assay: sXBP1 quantitative PCR, ES cells; format: cell-based; conditions: 20 μM PluriSIn #1 (12 hours) or 100 nm A939572
SCD1 = biological target: T1, SCD1 (Homo sapiens, UniProt O00767); assay: In vitro biochemical screen for SCD1 inhibitors; conditions: previous studies
T1 sequence (O00767 1-359): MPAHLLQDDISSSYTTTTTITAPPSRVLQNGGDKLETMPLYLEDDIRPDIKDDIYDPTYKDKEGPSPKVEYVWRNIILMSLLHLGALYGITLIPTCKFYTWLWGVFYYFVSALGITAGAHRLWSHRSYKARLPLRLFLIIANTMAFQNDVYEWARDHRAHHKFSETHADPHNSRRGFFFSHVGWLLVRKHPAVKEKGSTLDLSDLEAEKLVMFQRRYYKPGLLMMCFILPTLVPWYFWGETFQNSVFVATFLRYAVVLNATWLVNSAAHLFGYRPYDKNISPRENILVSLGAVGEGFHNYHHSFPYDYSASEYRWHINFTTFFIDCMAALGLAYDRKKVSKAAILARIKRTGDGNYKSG
Text: Inhibition of SCD1 has been reported to induce ER stress and UPR in some human cancer cell lines, leading to apoptosis of these cells [Roongta et al., Molecular Cancer Research 9:1551-1561 (2011); Minville-Walz et al., PloS One 5:e14363 (2010); Scaglia et al., PloS One 4:e6812 (2009); Hess et al., PloS One 5:e1394 (2010); Morgan-Lappe et al., Cancer Research 67:4390-4398 (2007); Mason et al., PLoS One 7:e33823 (2012)].

human ES cells = assay: Global gene expression analysis (microarray); format: cell-based; conditions: 12 hours
Protocol: Human embryonic stem cells, and early endodermal progenitors derived from human embryonic stem cells, were treated for 12 hours with the compounds PluriSIn #1 (isonicotinic acid N′-phenylhydrazide) or PluriSIn #6 (2-hydroxy-2-(thiophen-2-yl)-2-phenylacetic acid 4-methyl-N′-phenylhydrazide), or with 0.2% DMSO control. Total RNA was extracted using a PerfectPure™ RNA Cultured Cell Kit (5 Prime) according to the manufacturer's protocol, and analyzed using a Human Genome U133A 2.0 microarray platform (Affymetrix); washing and scanning were performed according to the manufacturer's protocol. Original microarray data are accessible at the NCBI Gene Expression Omnibus (GEO) database under the accession number GSE37040.
Arrays were normalized using the MASS algorithm in the Affymetrix Expression Console. Probe sets absent in both control and treatment conditions were filtered out by the MASS Absent/Present call. Probe sets with expression values lower than 50 were raised to this level. Using a 2-fold threshold, a list of differentially expressed genes was comprised for each pair of conditions: embryonic stem cells treated with PluriSin #1 vs. control, ESCs treated with PluriSIn #6 vs. control, and endodermal progenitor cells treated with PluriSIn #1 vs. control. […]

Row | Structure (SMILES) | apoptosis of undifferentiated cells (embryonic stem cells) | increase in expression of spliced isoform sXBP1, ES cells [1] | increase in number of apoptotic cells (embryonic stem cells; 20 μM, 16 hours post-treatment) | SCD1 inhibition in an in vitro biochemical screen (SCD1) | gene expression changes associated with ER stress and UPR (human ES cells)
1 | CNC(=O)c1cccc(NC(=O)N2CCC(Oc3ccccc3Cl)CC2)c1 [A939572, 4-(2-chlorophenoxy)-N-(3-(methylcarbamoyl)-phenyl)piperidine-1-carboxamide, reference compound] | enhanced apoptosis | approximately 2 fold |  |  | 
2 | O=C(NNc1ccccc1)c1ccncc1 [PluriSIn #1, isonicotinic acid N′-phenylhydrazide] | enhanced apoptosis | approximately 3.5 fold | approximately 7 fold | possible direct inhibitors of SCD1 | considerable gene expression changes
3 | Cc1ccc(NNC(=O)C(O)(c2ccccc2)c2cccs2)cc1 (stereo not drawn) [PluriSIn #6, 2-hydroxy-2-(thiophen-2-yl)-2-phenylacetic acid 4-methyl-N′-phenylhydrazide] |  |  |  | possible direct inhibitors of SCD1 | considerable gene expression changes
